Assay results: patent US12533330B2, “(2S)-2-aminopentanethioic s-acid for use as medicament and in therapy of amyotrophic lateral sclerosis” (MASSEY VENTURES LIMITED, priority 2020, dated 2026)

Columns and labels:
Assay type in all cases: in vivo
[1] = tested on: FUS[1-359]-tg mouse line (FUS-tg); assay: Onset of paralysis in FUS-tg mouse ALS model; details: for percentage of FUS-tg mice with signs of paralysis on day 95: FUS-tg male mice, six weeks via drinking water from age nine weeks, (I) and (IX) 50 mg/kg/day, Riluzole 8 mg/kg
Excerpt: (§1) A transgenic FUS[1-359]-tg mouse line (FUS-tg) was used to test the efficacy of the substance of formula (I) in the therapy of amyotrophic lateral sclerosis according to the guidelines set for ALS preclinical studies. Ludolph A C et al. Guidelines for preclinical animal research in ALS/MND: A consensus meeting. Amyotroph Lateral Scler. 2010; 11:38-45. Mutations in DNA/RNA-binding factor (fused-in-sarcoma) FUS cause ALS in humans. The FUS-tg mouse model recapitulates core hallmarks of human ALS in the spinal cord, including neuroinflammation and neurodegeneration, ensuing muscle atrophy and paralysis. […] J Biol Chem. 2013; 288:25266-25274. Lutz C. Mouse models of ALS: Past, present and future. […] CNS Neurosci Ther. 2020; 26(5):504-517.
(§2) The substance (I) and the substance (IX) represent (2S)- and (2R)-enantiomers of 2-aminopentanethioic S-acid, respectively. The (2R)-enantiomer (IX) was included to the study to clarify importance of (S)- and (R)-configurations of 2-aminopentanethioic S-acid during the therapy of ALS.
The onset of paralysis, a core ALS symptom, was recorded for each FUS-tg mouse.

[2] = tested on: FUS[1-359]-tg mouse line (FUS-tg); assay: Rotarod test in FUS-tg mouse ALS model; details: week 5, via drinking water, one-way ANOVA and Tukey's test
Excerpt: as §1, §2

[3] = tested on: FUS[1-359]-tg mouse line (FUS-tg); assay: Malondialdehyde (MDA) concentration in spinal cord of FUS-tg mice; details: 50 mg/kg/day via drinking water, one-way ANOVA and Tukey's test
Excerpt: A transgenic FUS[1-359]-tg mouse line (FUS-tg) was used to test the efficacy of the substance of formula (I) in the therapy of amyotrophic lateral sclerosis according to the guidelines set for ALS preclinical studies. Ludolph A C et al. Guidelines for preclinical animal research in ALS/MND: A consensus meeting. Amyotroph Lateral Scler. 2010; 11:38-45. Mutations in DNA/RNA-binding factor (fused-in-sarcoma) FUS cause ALS in humans. The FUS-tg mouse model recapitulates core hallmarks of human ALS in the spinal cord, including neuroinflammation and neurodegeneration, ensuing muscle atrophy and paralysis. Shelkovnikova T A et al. Fused in sarcoma (FUS) protein lacking nuclear localization signal (NLS) and major RNA binding motifs triggers proteinopathy and severe motor phenotype in transgenic mice. J Biol Chem. 2013; 288:25266-25274. Lutz C. Mouse models of ALS: Past, present and future. Brain Res. 2018; 1693:1-10. de Munter J et al. Neuro-Cells therapy improves motor outcomes and suppresses inflammation during experimental syndrome of amyotrophic lateral sclerosis in mice. CNS Neurosci Ther. 2020; 26(5):504-517. […]
The concentration of malondialdehyde (MDA), a marker of oxidative stress, was measured in the spinal cord of FUS-tg mice treated with vehicle or substance of formula (I) in comparison with wild type controls. […]

Structure (SMILES): CCC[C@@H](N)C(=O)S [substance (IX), (2R)-2-aminopentanethioic S-acid, reference compound]
- percentage of FUS-tg mice with signs of paralysis on day 95 [1]: 43%
- latency to fall in the rotarod test vs. vehicle-treated FUS-tg mice [2]: no significant difference

Structure (SMILES): CCC[C@H](N)C(=O)S [substance (I), (2S)-2-aminopentanethioic S-acid]
- percentage of FUS-tg mice with signs of paralysis on day 95 [1]: 16%
- significance of percentage of mice with signs of paralysis on the 95th day vs. vehicle ([1]; FUS-tg mice, day 95, Fisher test vs. vehicle): significantly lower
- latency to fall in the rotarod test vs. vehicle-treated FUS-tg mice [2]: significantly longer latency to fall
- MDA levels in the spinal cord vs. vehicle-treated FUS-tg mice [3]: significant reduction of the MDA levels
